Assay results taken from patent US3992391A, “1,3-Disubstituted thiourea compounds and preparation thereof” (priority 1972, dated 1976).
Where a name gives a salt, the structure may show the parent alone.

Tests used:
[1] = Hypoxia test (rat), reduced pressure, survival time; assay type: in vivo, rats (wister-strain); conditions: reduced pressure 145 mmHg
Experimental: Male mice (dd-strain) and rats (wister-strain) were taken to a closed room which was filled with a gas mixture consisting of 1.5 % oxygen and 98.5 % nitrogen, or was conditioned in reduced atmospheric pressure (145 mmHg). In the other hand, mice and rats were given sodium cyanide (10 mg/kg, i.p.). These animals died after a few minutes in such conditions. 1-(3'-Pyridyl)-3-(2'-hydroxyethyl)thiourea HCl was given 1 hour before these hypoxia tests.
In the Tables data mean the increase percent of the survival time to that of control.

[2] = Haemodynamic action in anesthetized dogs; assay type: in vivo
Experimental: To study of 1-(3'-pyridyl)-3-(2'-hydroxyethyl)thiourea HCl on the haemodynamic action, five dogs of either sex were used under sodium pentobarbital anesthesia (30 mg/kg i.v.), the common carotid artery blood flow and the femoral artery blood flow were measured by the electromagnetic flow meter and the systolic blood pressure in the femoral artery was recorded with the pressure transducer.

Acute toxicity = assay type: in vivo; conditions: for LD50: mouse, in vivo, dd-strain male mice
Experimental: Acute toxicity of 1-(3'-pyridyl)-3-(2'-hydroxyethyl)thiourea hydrochloride was determined in dd-strain male mice.

[3] = test system: cardiac carbohydrate, lactate and fat; assay: Cardiac carbohydrate, lactate and fat under the influence of isoproterenol in an anoxic condition; assay type: in vivo, male rats of wister-strain; conditions: rats, 1.0 mg/kg i.v.
Experimental: Male rats of wister - strain served as experimental animals. Isoproterenol in a dose of 3.0 μg/kg was injected intravenously to the animals, and 5 minutes later, the rat was taken to a closed room which was filled with a mixture gas consisting of 5 % oxygen and 95 % nitrogen. After the rat was kept in the above mentioned gas chamber for 5 minutes, they were killed by cervical dislocation. The anoxic state of the heart was measured by the cardiac carbohydrate (glycogen, pyruvate), lactate and fat [non-esterifiedfatty acid (hereinafter, referred to as NEFA), triglyceride (hereinafter, referred to as TG)].

Na^+, K^+ - ATPase [4] = assay: Brain Na^+, K^+ - ATPase after triethyl tin sulfate cerebral edema; assay type: in vivo; conditions: rats
Experimental: (§1) Cerebral edema was induced in rats by a triethyl tin sulfate (5.0 mg/kg, i.p.) made on the whole brain. Edema was measured by the increase in water content, lactate, phosphorylase activity and the decrease in glycogen, Na^+, K^+ - ATPase activity of the whole brain.
(§2) 1-(3'-Pyridyl)-3-(2'-hydroxyethyl)thiourea HCl was given 1 hour before and 24, 48 hours after the lesion treatment and the animals were killed by decapitation 72 hours after the lesion treatment.

[5] = test system: distribution of ^14 C - glucose to brain; assay: Distribution of ^14 C - glucose(U) to brain; assay type: in vivo, mouse; conditions: for ^14 C-glucose, Brain / ^14 C-glucose, Brain/Plasma / ^14 C-glucose, Plasma: mouse, 300 mg/kg oral
Experimental: ^14 C - glucose(U) was given intravenously (1.0 μC/mouse), and the animals were killed by decapitation 10 minutes after ^14 C - glucose administration. 1-(3'-Pyridyl)-3-(2'-hydroxyethyl)thiourea HCl was given orally 300 mg/kg before ^14 C - glucose administration.

[6] = Prolonging effect on lethal time under various hypoxic conditions (mice and rats, all tests together); assay type: in vivo, mice (dd-strain) and rats (wister-strain); conditions: 100, 300 mg/kg p.o., 100 mg/kg s.c., and 30 mg/kg i.v.
Na^+, K^+ - ATPase [7] = assay: Cerebral Na^+, K^+ - ATPase after cold injury (freezing lesion cerebral edema); assay type: in vivo; conditions: rats
Experimental: (§3) Cerebral edema was induced in rats by a freezing lesion (dry ice) made on the exposed dura of unilateral hemisphere. Edema was measured by the increase in water content of gray and white matter, the increase in phosphorylase activity and the decrease in Na^+, K^+ - ATPase activity of the injured brain. 1-(3'-Pyridyl)-3-(2'-hydroxyethyl)thiourea HCl was given 1 hour before and 24 hours after, and the animals were killed by decapitation 48 hours after the lesion treatment.

[8] = Cerebral water content after cold injury (freezing lesion cerebral edema); assay type: in vivo; conditions: rats
Experimental: as §3

[9] = test system: cerebral carbohydrate and lactate metabolism; assay: Brain glycogen and lactate after triethyl tin sulfate cerebral edema; assay type: in vivo; conditions: rats
Experimental: as §1, §2

phosphorylase = assay: Brain phosphorylase after triethyl tin sulfate cerebral edema; assay type: in vivo; conditions: rats
Experimental: as §1, §2

[10] = Brain water content after triethyl tin sulfate cerebral edema; assay type: in vivo; conditions: rats; for H2O, Gray: gray matter; for H2O, White: white matter
Experimental: as §1, §2

[11] = heart, 5 minutes before isoproterenol
[12] = heart, 10 minutes before isoproterenol
[13] = heart, 30 minutes before isoproterenol
[14] = heart, 60 minutes before isoproterenol

With OCCNC(=S)Nc1cccnc1 [1-(3'-pyridyl)-3-(2'-hydroxyethyl)thiourea hydrochloride] the “increase percent of the survival time to that of control” value ([1]; 30 mg/kg i.v.) was 135%, the “increase percent of the survival time to that of control” value ([1]; 100 mg/kg s.c.) was 132% and the “haemodynamic effects in comparison with papaverine hydrochloride” value [2] was “relatively weak”. The “action to the common carotid artery blood flow” value ([2]; 0.1 - 1.0 mg/kg intra-common carotid artery) was 12 - 39%, the “carotid artery blood flow increase” value ([2]; 3 - 30 mg/kg intravenously) was 6 - 24% and the “femoral artery blood flow increase” value ([2]; 3 - 30 mg/kg intravenously) was 4 - 18%. For the same compound, the blood pressure decrease ([2]; 3 - 30 mg/kg intravenously, systolic, femoral artery) was 8 - 14%, the “acute lethal toxic symptoms” value (Acute toxicity; dose of LD50 or more) was “sedation and paralysis” and the LD50 (Acute toxicity; iv) was 640 mg/kg. For the same compound, the LD50 (Acute toxicity; po) was greater than 2000 mg/kg, the LD50 (Acute toxicity; sc) was 1350 mg/kg and the “effect on the increase in NEFA level” value ([3]; heart) was “antagonized”. For the same compound, the “effect on the increase in lactate level” value ([3]; heart) was “antagonized”, the “effect on the increase in pyruvate level” value ([3]; heart) was “antagonized” and the Glycogen [3, 11] was 5.68 ± 0.45 mg/g. It also gave a Lactate [3, 11] of 123.2 ± 10.7 µg/g, an NEFA [3, 11] of 4.26 ± 0.35 µM/g and a Pyruvate [3, 11] of 38.4 ± 2.42 µg/g. It also gave a TG [3, 11] of 2.15 ± 0.21 mg/g, a Glycogen [3, 12] of 6.05 ± 0.51 mg/g and a Lactate [3, 12] of 95.1 ± 8.2 µg/g. It also gave an NEFA [3, 12] of 4.12 ± 0.29 µM/g, a Pyruvate [3, 12] of 29.5 ± 3.15 µg/g and a TG [3, 12] of 1.98 ± 0.13 mg/g. The Glycogen [3, 13] was 6.97 ± 0.41 mg/g, the Lactate [3, 13] was 92.5 ± 9.7 µg/g and the NEFA [3, 13] was 3.87 ± 0.32 µM/g. It also gave a Pyruvate [3, 13] of 25.2 ± 2.07 µg/g, a TG [3, 13] of 1.87 ± 0.19 mg/g and a Glycogen [3, 14] of 5.92 ± 0.62 mg/g. The Lactate [3, 14] was 140.6 ± 12.3 µg/g, the NEFA [3, 14] was 4.58 ± 0.36 µM/g and the Pyruvate [3, 14] was 39.3 ± 2.76 µg/g. For the same compound, the TG [3, 14] was 2.25 ± 0.18 mg/g, the “effect on the decrease in cardiac glycogen content” value [3] was “antagonized” and the “significance of the antagonizing effect” value ([3]; administered 10 - 30 minutes before isoproterenol) was “significantly”. For the same compound, the ATPase (Na^+, K^+ - ATPase [4]; 30 mg/kg p.o.) was 1.146 μ moles Pi/g/hr, the ATPase (Na^+, K^+ - ATPase [4]; 100 mg/kg p.o.) was 1.193 μ moles Pi/g/hr and the ATPase (Na^+, K^+ - ATPase [4]; 300 mg/kg p.o.) was 1.246 μ moles Pi/g/hr. For the same compound, the “effect on the decrease in Na^+, K^+ - ATPase activity of the injured brain” value (Na^+, K^+ - ATPase [4]; 100 and 300 mg/kg orally) was “antagonized”, the “distribution of ^14 C - glucose to brain” value ([5]; 300 mg/kg orally, given 60 - 120 minutes before ^14 C - glucose) was “increased” and the “^14 C-glucose, Brain” value ([5]; 30 min before ^14 C-glucose) was 88.90 ± 12.69 × 10^3 dpm/g. For the same compound, the “^14 C-glucose, Brain/Plasma” value ([5]; 30 min before ^14 C-glucose) was 2.52 ± 0.59, the “^14 C-glucose, Plasma” value ([5]; 30 min before ^14 C-glucose) was 35.22 ± 2.36 × 10^3 dpm/ml and the “^14 C-glucose, Brain” value ([5]; 60 min before ^14 C-glucose) was 93.76 ± 5.33 × 10^3 dpm/g. For the same compound, the “^14 C-glucose, Brain/Plasma” value ([5]; 60 min before ^14 C-glucose) was 2.48 ± 0.44, the “^14 C-glucose, Plasma” value ([5]; 60 min before ^14 C-glucose) was 37.88 ± 3.15 × 10^3 dpm/ml and the “^14 C-glucose, Brain” value ([5]; 120 min before ^14 C-glucose) was 96.80 ± 6.80 × 10^3 dpm/g. For the same compound, the “^14 C-glucose, Brain/Plasma” value ([5]; 120 min before ^14 C-glucose) was 2.69 ± 0.15, the “^14 C-glucose, Plasma” value ([5]; 120 min before ^14 C-glucose) was 35.93 ± 0.95 × 10^3 dpm/ml and the “survival in comparison with the survival time of each control group” value [6] was “survived twice or more”. For the same compound, the ATPase (Na^+, K^+ - ATPase [7]; 100 mg/kg p.o.) was 1.180 ± 0.094 μ moles Pi/g/hr, the ATPase (Na^+, K^+ - ATPase [7]; 300 mg/kg p.o.) was 1.226 ± 0.080 μ moles Pi/g/hr and the “effect on the decrease in Na^+, K^+ - ATPase activity” value (Na^+, K^+ - ATPase [7]; 300 mg/kg p.o.) was “protective effect”. The “H2O, Gray matter” value ([8]; 100 mg/kg p.o.) was 81.5%, the “H2O, White matter” value ([8]; 100 mg/kg p.o.) was 80.3% and the “effect on the increase in water content” value ([8]; 300 mg/kg p.o.) was “protective effect”. For the same compound, the “H2O, Gray matter” value ([8]; 300 mg/kg p.o.) was 79.7%, the “H2O, White matter” value ([8]; 300 mg/kg p.o.) was 79.5% and the Glycogen ([9]; 30 mg/kg p.o.) was 1.03 mg/g. It also gave a Lactate ([9]; 30 mg/kg p.o.) of 72.5 µg/g, a Glycogen ([9]; 100 mg/kg p.o.) of 1.17 mg/g and a Lactate ([9]; 100 mg/kg p.o.) of 65.5 µg/g. For the same compound, the Glycogen ([9]; 300 mg/kg p.o.) was 1.27 mg/g, the Lactate ([9]; 300 mg/kg p.o.) was 61.0 µg/g and the “effect on the decrease in glycogen level of the injured brain” value ([9]; 100 and 300 mg/kg orally) was “antagonized”. For the same compound, the “effect on the increase in lactate level of the injured brain” value ([9]; 100 and 300 mg/kg orally) was “antagonized”, the “Phosphorylase A/T × 100 (Active phosphorylase/Total phosphorylase)” value (phosphorylase; 30 mg/kg p.o.) was 73.3 and the “Phosphorylase, Active” value (phosphorylase; 30 mg/kg p.o.) was 0.197 units/g. The “Phosphorylase A/T × 100 (Active phosphorylase/Total phosphorylase)” value (phosphorylase; 100 mg/kg p.o.) was 71.5, the “Phosphorylase, Active” value (phosphorylase; 100 mg/kg p.o.) was 0.192 units/g and the “Phosphorylase A/T × 100 (Active phosphorylase/Total phosphorylase)” value (phosphorylase; 300 mg/kg p.o.) was 67.8. The “Phosphorylase, Active” value (phosphorylase; 300 mg/kg p.o.) was 0.187 units/g, the “H2O, Gray” value ([10]; 30 mg/kg p.o.) was 81.6% and the “H2O, White” value ([10]; 30 mg/kg p.o.) was 79.5%. The “H2O, Gray” value ([10]; 100 mg/kg p.o.) was 80.2%, the “H2O, White” value ([10]; 100 mg/kg p.o.) was 78.3% and the “H2O, Gray” value ([10]; 300 mg/kg p.o.) was 79.4%. The “H2O, White” value ([10]; 300 mg/kg p.o.) was 77.8%.
